Measurements from patent US20220054494A1, “METHODS FOR TREATING BLADDER AND URETHRA DYSFUNCTION AND DISEASE” (University of Pittsburgh - Of the Commonwealth System of …, priority 2019, published 2022).

Tested on: nitrotyrosine
Assay: Western immunoblotting, nitrotyrosine
Format: in vivo, rat
Conditions: aged rats; oral 8-AG 5 mg/kg/day, 6 weeks
Method: Western immunoblotting: One half of each bladder preparation was homogenized using Lysing Matrix D in a FastPrep 24 instrument (MP Biomedicals, Solon, Ohio) in HBSS (5 mM KCl, 0.3 mM KH2PO4, 138 mM NaCl, 4 mM NaHO3, 0.3 mM Na2HCO3, 0.3 mM Na2HPO4, 5.6 mM glucose and 10 mM Hepes, pH 7.4) containing complete protease inhibitor cocktail (1 tablet/10 ml, ROCHE®, Indianapolis, Ind.)) and phosphatase inhibitor cocktail (SIGMA®, 1:100). After centrifugation (13000 rpm; 15 min at 4° C.), the membrane protein fraction was prepared by suspending the membrane pellets in lysis buffer containing 0.3 M NaCl, 50 mM Tris-HCl (pH 7.6) and 0.5% Triton X-100 and the same concentration of protease inhibitors as above. The suspensions were incubated on ice and centrifuged (13000 rpm; 15 min at 4° C.). The protein concentrations of the combined supernatants were determined using the PIERCE® BCA protein assay (THERMO SCIENTIFIC®, Rockford, Ill.). […] As a loading control, total protein per sample was determined using Bio-Rad® Stain Free SDS-PAGE gel technology. UV-activated protein fluorescence was imaged on a CHEMIDOC® MP (BIO-RAD®). […] The volume (intensity) of each protein species was determined and normalized to total protein using Image Lab software (BIO-RAD®).

With Nc1nc2[nH]c(N)nc2c(=O)[nH]1 [8-AG, 8-Aminoguanine] the urethral nitrotyrosine was “normalized to a younger state”.
